From ChEMBL document CHEMBL1146703, “Mannopeptimycin esters and carbonates, potent antibiotic agents against drug-resistant bacteria” (2004)
≈ marks a conversion by molar mass, not a printed value.

Legend:
Staphylococcus aureus = test: Antibacterial activity against Staphylococcus aureus; format: functional
Enterococcus faecalis = test: Antibacterial activity against Enterococcus faecalis; format: functional
Escherichia coli = test: Antibacterial activity against Escherichia coli at </=64 ug/mL; No activity; format: functional, organism-based

| SMILES | MIC (Staphylococcus aureus) | MIC (Enterococcus faecalis) | MIC (Escherichia coli) |
| --- | --- | --- | --- |
| C[C@@H](c1ccccc1)[C@@H]1NC(=O)CNC(=O)[C@H](CO)NC(=O)[C@@H]([C@@H](O)[C@@H]2CNC(N)N2[C@H]2O[C@H](CO)[C@@H](O)[C@H](O)[C@@H]2O)NC(=O)[C@H]([C@@H](O)[C@@H]2CNC(N)N2)NC(=O)[C@@H](Cc2ccc(O[C@H]3O[C@H](COC(=O)CCC4CCCC4)[C@@H](O[C@H]4O[C@H](CO)[C@@H](O)[C@H](O)[C@@H]4O)[C@H](O)[C@@H]3O)cc2)NC1=O (stereo not given in full) | 2 µg/mL (≈ 1.4 µM) | 8 µg/mL (≈ 5.62 µM) | No activity |
| C[C@@H](c1ccccc1)[C@@H]1NC(=O)CNC(=O)[C@H](CO)NC(=O)[C@@H]([C@@H](O)[C@@H]2CNC(N)N2[C@H]2O[C@H](COC(=O)C(c3ccccc3)c3ccccc3)[C@@H](O)[C@H](O)[C@@H]2O)NC(=O)[C@H]([C@@H](O)[C@@H]2CNC(N)N2)NC(=O)[C@@H](Cc2ccc(O[C@H]3O[C@H](CO)[C@@H](O[C@H]4O[C@H](CO)[C@@H](O)[C@H](O)[C@@H]4O)[C@H](O)[C@@H]3O)cc2)NC1=O (stereo not given in full) | > 64 µg/mL | > 64 µg/mL | No activity |
| C[C@@H](c1ccccc1)[C@@H]1NC(=O)CNC(=O)[C@H](COC(=O)Cc2ccccc2)NC(=O)[C@@H]([C@@H](O)[C@@H]2CNC(N)N2[C@H]2O[C@H](CO)[C@@H](O)[C@H](O)[C@@H]2O)NC(=O)[C@H]([C@@H](O)[C@@H]2CNC(N)N2)NC(=O)[C@@H](Cc2ccc(O[C@H]3O[C@H](CO)[C@@H](O[C@H]4O[C@H](CO)[C@@H](O)[C@H](O)[C@@H]4O)[C@H](O)[C@@H]3O)cc2)NC1=O (stereo not given in full) | – | – | No activity |
| C[C@@H](c1ccccc1)[C@@H]1NC(=O)CNC(=O)[C@H](COC(=O)C(c2ccccc2)c2ccccc2)NC(=O)[C@@H]([C@@H](O)[C@@H]2CNC(N)N2[C@H]2O[C@H](CO)[C@@H](O)[C@H](O)[C@@H]2O)NC(=O)[C@H]([C@@H](O)[C@@H]2CNC(N)N2)NC(=O)[C@@H](Cc2ccc(O[C@H]3O[C@H](CO)[C@@H](O[C@H]4O[C@H](CO)[C@@H](O)[C@H](O)[C@@H]4O)[C@H](O)[C@@H]3O)cc2)NC1=O (stereo not given in full) | > 64 µg/mL | > 64 µg/mL | No activity |
| C[C@@H](c1ccccc1)[C@@H]1NC(=O)CNC(=O)[C@H](CO)NC(=O)[C@@H]([C@@H](O)[C@@H]2CNC(N)N2[C@H]2O[C@H](COC(=O)CCC3CCCC3)[C@@H](O)[C@H](O)[C@@H]2O)NC(=O)[C@H]([C@@H](O)[C@@H]2CNC(N)N2)NC(=O)[C@@H](Cc2ccc(O[C@H]3O[C@H](CO)[C@@H](O[C@H]4O[C@H](CO)[C@@H](O)[C@H](O)[C@@H]4O)[C@H](O)[C@@H]3O)cc2)NC1=O (stereo not given in full) | > 64 µg/mL | > 64 µg/mL | No activity |
| C[C@@H](c1ccccc1)[C@@H]1NC(=O)CNC(=O)[C@H](CO)NC(=O)[C@@H]([C@@H](O)[C@@H]2CNC(N)N2[C@H]2O[C@H](COC(=O)Cc3ccccc3)[C@@H](O)[C@H](O)[C@@H]2O)NC(=O)[C@H]([C@@H](O)[C@@H]2CNC(N)N2)NC(=O)[C@@H](Cc2ccc(O[C@H]3O[C@H](CO)[C@@H](O[C@H]4O[C@H](CO)[C@@H](O)[C@H](O)[C@@H]4O)[C@H](O)[C@@H]3O)cc2)NC1=O (stereo not given in full) | – | – | No activity |

Results, then the compound that gave them:

| MIC (Staphylococcus aureus) | MIC (Enterococcus faecalis) | MIC (Escherichia coli) | SMILES |
| --- | --- | --- | --- |
| – | – | No activity | CCCC(CCC)C(=O)OC[C@@H]1NC(=O)[C@@H]([C@@H](O)[C@@H]2CNC(N)N2[C@H]2O[C@H](CO)[C@@H](O)[C@H](O)[C@@H]2O)NC(=O)[C@H]([C@@H](O)[C@@H]2CNC(N)N2)NC(=O)[C@@H](Cc2ccc(O[C@H]3O[C@H](CO)[C@@H](O[C@H]4O[C@H](CO)[C@@H](O)[C@H](O)[C@@H]4O)[C@H](O)[C@@H]3O)cc2)NC(=O)[C@H]([C@@H](C)c2ccccc2)NC(=O)CNC1=O (stereo not given in full) |
| – | – | No activity | CCCCCCC(=O)OC[C@@H]1NC(=O)[C@@H]([C@@H](O)[C@@H]2CNC(N)N2[C@H]2O[C@H](CO)[C@@H](O)[C@H](O)[C@@H]2O)NC(=O)[C@H]([C@@H](O)[C@@H]2CNC(N)N2)NC(=O)[C@@H](Cc2ccc(O[C@H]3O[C@H](CO)[C@@H](O[C@H]4O[C@H](CO)[C@@H](O)[C@H](O)[C@@H]4O)[C@H](O)[C@@H]3O)cc2)NC(=O)[C@H]([C@@H](C)c2ccccc2)NC(=O)CNC1=O (stereo not given in full) |
| > 64 µg/mL | > 64 µg/mL | No activity | CCCCCC(=O)OC[C@H]1O[C@H](N2C(N)NC[C@H]2[C@H](O)[C@H]2NC(=O)[C@H]([C@@H](O)[C@@H]3CNC(N)N3)NC(=O)[C@@H](Cc3ccc(O[C@H]4O[C@H](CO)[C@@H](O[C@H]5O[C@H](CO)[C@@H](O)[C@H](O)[C@@H]5O)[C@H](O)[C@@H]4O)cc3)NC(=O)[C@H]([C@@H](C)c3ccccc3)NC(=O)CNC(=O)[C@H](CO)NC2=O)[C@@H](O)[C@@H](O)[C@@H]1O (stereo not given in full) |
| > 64 µg/mL | > 64 µg/mL | No activity | C[C@@H](c1ccccc1)[C@@H]1NC(=O)CNC(=O)[C@H](COC(=O)CCC2CCCC2)NC(=O)[C@@H]([C@@H](O)[C@@H]2CNC(N)N2[C@H]2O[C@H](CO)[C@@H](O)[C@H](O)[C@@H]2O)NC(=O)[C@H]([C@@H](O)[C@@H]2CNC(N)N2)NC(=O)[C@@H](Cc2ccc(O[C@H]3O[C@H](CO)[C@@H](O[C@H]4O[C@H](CO)[C@@H](O)[C@H](O)[C@@H]4O)[C@H](O)[C@@H]3O)cc2)NC1=O (stereo not given in full) |
| > 64 µg/mL | > 64 µg/mL | No activity | CCCCCCC(=O)OC[C@H]1O[C@H](N2C(N)NC[C@H]2[C@H](O)[C@H]2NC(=O)[C@H]([C@@H](O)[C@@H]3CNC(N)N3)NC(=O)[C@@H](Cc3ccc(O[C@H]4O[C@H](CO)[C@@H](O[C@H]5O[C@H](CO)[C@@H](O)[C@H](O)[C@@H]5O)[C@H](O)[C@@H]4O)cc3)NC(=O)[C@H]([C@@H](C)c3ccccc3)NC(=O)CNC(=O)[C@H](CO)NC2=O)[C@@H](O)[C@@H](O)[C@@H]1O (stereo not given in full) |
| > 64 µg/mL | > 64 µg/mL | No activity | C[C@@H](c1ccccc1)[C@@H]1NC(=O)CNC(=O)[C@H](CO)NC(=O)[C@@H]([C@@H](O)[C@@H]2CNC(N)N2[C@H]2O[C@H](CO)[C@@H](O)[C@H](O)[C@@H]2O)NC(=O)[C@H]([C@@H](O)[C@@H]2CNC(N)N2)NC(=O)[C@@H](Cc2ccc(O[C@H]3O[C@H](CO)[C@@H](O[C@H]4O[C@H](CO)[C@@H](O)[C@H](O)[C@@H]4O)[C@H](O)[C@@H]3O)cc2)NC1=O (stereo not given in full) |
| – | – | No activity | CCCC(CCC)C(=O)OC[C@H]1O[C@H](N2C(N)NC[C@H]2[C@H](O)[C@H]2NC(=O)[C@H]([C@@H](O)[C@@H]3CNC(N)N3)NC(=O)[C@@H](Cc3ccc(O[C@H]4O[C@H](CO)[C@@H](O[C@H]5O[C@H](CO)[C@@H](O)[C@H](O)[C@@H]5O)[C@H](O)[C@@H]4O)cc3)NC(=O)[C@H]([C@@H](C)c3ccccc3)NC(=O)CNC(=O)[C@H](CO)NC2=O)[C@@H](O)[C@@H](O)[C@@H]1O (stereo not given in full) |
| – | – | No activity | CCCCCC(=O)OC[C@@H]1NC(=O)[C@@H]([C@@H](O)[C@@H]2CNC(N)N2[C@H]2O[C@H](CO)[C@@H](O)[C@H](O)[C@@H]2O)NC(=O)[C@H]([C@@H](O)[C@@H]2CNC(N)N2)NC(=O)[C@@H](Cc2ccc(O[C@H]3O[C@H](CO)[C@@H](O[C@H]4O[C@H](CO)[C@@H](O)[C@H](O)[C@@H]4O)[C@H](O)[C@@H]3O)cc2)NC(=O)[C@H]([C@@H](C)c2ccccc2)NC(=O)CNC1=O (stereo not given in full) |
